According to patent publication US9693556B2, “Herbicidal pyridazinone derivatives” (SYNGENTA LIMITED, priority 2011, dated 2017):

Columns and labels:
Type in all cases: in vivo
[1] = system: Echinochloa crus-galli (ECHCG); experiment: Post-emergence herbicidal glasshouse test on Echinochloa crus-galli; conditions: post-emergence; 1000 g/h; evaluated after 13 days
Summary of the method: (§1)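 Scoring scale: 5=80-100%, 4=60-79%, 3=40-59%, 2=20-39%, 1=0-19% damage, assessed on day 13. Compound sprayed at 1000 g/h on soil-grown plants (day 1 pre-, day 8 post-emergence) kept at 24/16 °C, 14 h light.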

[2] = system: Alopecurus myosuroides (ALOMY); experiment: Post-emergence herbicidal glasshouse test on Alopecurus myosuroides; conditions: post-emergence; 1000 g/h; evaluated after 13 days
Summary of the method: as §1

Solanum nigrum (SOLNI) [3] = experiment: Post-emergence herbicidal glasshouse test on Solanum nigrum; conditions: post-emergence; 1000 g/h; evaluated after 13 days
Summary of the method: as §1

Solanum nigrum (SOLNI) [4] = experiment: Pre-emergence herbicidal glasshouse test on Solanum nigrum; conditions: pre-emergence; 1000 g/h; evaluated after 13 days
Summary of the method: as §1

[5] = system: Alopecurus myosuroides (ALOMY); experiment: Pre-emergence herbicidal glasshouse test on Alopecurus myosuroides; conditions: pre-emergence; 1000 g/h; evaluated after 13 days
Summary of the method: as §1

[6] = system: Ipomoea hederacea (IPOHE); experiment: Post-emergence herbicidal glasshouse test on Ipomoea hederacea; conditions: post-emergence; 1000 g/h; evaluated after 13 days
Summary of the method: as §1

[7] = system: Amaranthus retoflexus (AMARE); experiment: Post-emergence herbicidal glasshouse test on Amaranthus retoflexus; conditions: post-emergence; 1000 g/h; evaluated after 13 days
Summary of the method: as §1

Setaria faberi (SETFA) [8] = experiment: Pre-emergence herbicidal glasshouse test on Setaria faberi; conditions: pre-emergence; 1000 g/h; evaluated after 13 days
Summary of the method: as §1

Setaria faberi (SETFA) [9] = experiment: Post-emergence herbicidal glasshouse test on Setaria faberi; conditions: post-emergence; 1000 g/h; evaluated after 13 days
Summary of the method: as §1

[10] = system: Ipomoea hederacea (IPOHE); experiment: Pre-emergence herbicidal glasshouse test on Ipomoea hederacea; conditions: pre-emergence; 1000 g/h; evaluated after 13 days
Summary of the method: as §1

[11] = system: Echinochloa crus-galli (ECHCG); experiment: Pre-emergence herbicidal glasshouse test on Echinochloa crus-galli; conditions: pre-emergence; 1000 g/h; evaluated after 13 days
Summary of the method: as §1

[12] = system: Amaranthus retoflexus (AMARE); experiment: Pre-emergence herbicidal glasshouse test on Amaranthus retoflexus; conditions: pre-emergence; 1000 g/h; evaluated after 13 days
Summary of the method: as §1

Cc1c(-c2cnn(C(C)(C)C)c(=O)c2O)ccc(S(C)(=O)=O)c1C1=NOCC1 [Compound 1.131]
POST Application ECHCG herbicidal damage (five point scale) [1]: 5 (5=80-100% damage)
POST Application ALOMY herbicidal damage (five point scale) [2]: 4 (4=60-79% damage)
POST Application SOLNI herbicidal damage (five point scale) (Solanum nigrum (SOLNI) [3]): 5 (5=80-100% damage)
PRE Application SOLNI herbicidal damage (five point scale) (Solanum nigrum (SOLNI) [4]): 4 (4=60-79% damage)
PRE Application ALOMY herbicidal damage (five point scale) [5]: 1 (1=0-19% damage)
POST Application IPOHE herbicidal damage (five point scale) [6]: 5 (5=80-100% damage)
POST Application AMARE herbicidal damage (five point scale) [7]: 5 (5=80-100% damage)
PRE Application SETFA herbicidal damage (five point scale) (Setaria faberi (SETFA) [8]): 1 (1=0-19% damage)
POST Application SETFA herbicidal damage (five point scale) (Setaria faberi (SETFA) [9]): 4 (4=60-79% damage)
PRE Application IPOHE herbicidal damage (five point scale) [10]: 1 (1=0-19% damage)
PRE Application ECHCG herbicidal damage (five point scale) [11]: 1 (1=0-19% damage)
PRE Application AMARE herbicidal damage (five point scale) [12]: 3 (3=40-59% damage)

CC(C)(C)n1ncc(-c2c(Cl)cccc2Cl)c(O)c1=O [Compound 1.133]
POST Application ECHCG herbicidal damage (five point scale) [1]: 3 (3=40-59% damage)
POST Application ALOMY herbicidal damage (five point scale) [2]: 1 (1=0-19% damage)
POST Application SOLNI herbicidal damage (five point scale) (Solanum nigrum (SOLNI) [3]): 2 (2=20-39% damage)
PRE Application SOLNI herbicidal damage (five point scale) (Solanum nigrum (SOLNI) [4]): 1 (1=0-19% damage)
PRE Application ALOMY herbicidal damage (five point scale) [5]: 1 (1=0-19% damage)
POST Application IPOHE herbicidal damage (five point scale) [6]: 2 (2=20-39% damage)
POST Application AMARE herbicidal damage (five point scale) [7]: 1 (1=0-19% damage)
PRE Application SETFA herbicidal damage (five point scale) (Setaria faberi (SETFA) [8]): 1 (1=0-19% damage)
POST Application SETFA herbicidal damage (five point scale) (Setaria faberi (SETFA) [9]): 1 (1=0-19% damage)
PRE Application IPOHE herbicidal damage (five point scale) [10]: 1 (1=0-19% damage)
PRE Application ECHCG herbicidal damage (five point scale) [11]: 1 (1=0-19% damage)
PRE Application AMARE herbicidal damage (five point scale) [12]: 1 (1=0-19% damage)

CN(C)c1nc(C(F)(F)F)ccc1-c1cnn(C)c(=O)c1O [Compound 1.134]
POST Application ECHCG herbicidal damage (five point scale) [1]: 2 (2=20-39% damage)
POST Application ALOMY herbicidal damage (five point scale) [2]: 1 (1=0-19% damage)
POST Application SOLNI herbicidal damage (five point scale) (Solanum nigrum (SOLNI) [3]): 5 (5=80-100% damage)
PRE Application SOLNI herbicidal damage (five point scale) (Solanum nigrum (SOLNI) [4]): 5 (5=80-100% damage)
PRE Application ALOMY herbicidal damage (five point scale) [5]: 1 (1=0-19% damage)
POST Application IPOHE herbicidal damage (five point scale) [6]: 5 (5=80-100% damage)
POST Application AMARE herbicidal damage (five point scale) [7]: 5 (5=80-100% damage)
PRE Application SETFA herbicidal damage (five point scale) (Setaria faberi (SETFA) [8]): 1 (1=0-19% damage)
POST Application SETFA herbicidal damage (five point scale) (Setaria faberi (SETFA) [9]): 2 (2=20-39% damage)
PRE Application IPOHE herbicidal damage (five point scale) [10]: 2 (2=20-39% damage)
PRE Application ECHCG herbicidal damage (five point scale) [11]: 1 (1=0-19% damage)
PRE Application AMARE herbicidal damage (five point scale) [12]: 5 (5=80-100% damage)

CCS(=O)(=O)c1nc(C(F)(F)F)ccc1-c1cnn(C)c(=O)c1O [Compound 1.135]
POST Application ECHCG herbicidal damage (five point scale) [1]: 5 (5=80-100% damage)
POST Application ALOMY herbicidal damage (five point scale) [2]: 4 (4=60-79% damage)
POST Application SOLNI herbicidal damage (five point scale) (Solanum nigrum (SOLNI) [3]): 5 (5=80-100% damage)
PRE Application SOLNI herbicidal damage (five point scale) (Solanum nigrum (SOLNI) [4]): 5 (5=80-100% damage)
PRE Application ALOMY herbicidal damage (five point scale) [5]: 4 (4=60-79% damage)
POST Application IPOHE herbicidal damage (five point scale) [6]: 5 (5=80-100% damage)
POST Application AMARE herbicidal damage (five point scale) [7]: 5 (5=80-100% damage)
PRE Application SETFA herbicidal damage (five point scale) (Setaria faberi (SETFA) [8]): 5 (5=80-100% damage)
POST Application SETFA herbicidal damage (five point scale) (Setaria faberi (SETFA) [9]): 5 (5=80-100% damage)
PRE Application IPOHE herbicidal damage (five point scale) [10]: 5 (5=80-100% damage)
PRE Application ECHCG herbicidal damage (five point scale) [11]: 5 (5=80-100% damage)
PRE Application AMARE herbicidal damage (five point scale) [12]: 5 (5=80-100% damage)

Cn1ncc(-c2ccc(S(C)(=O)=O)c(OCC(F)(F)F)c2Cl)c(O)c1=O [Compound 1.137]
POST Application ECHCG herbicidal damage (five point scale) [1]: 5 (5=80-100% damage)
POST Application ALOMY herbicidal damage (five point scale) [2]: 1 (1=0-19% damage)
POST Application SOLNI herbicidal damage (five point scale) (Solanum nigrum (SOLNI) [3]): 5 (5=80-100% damage)
PRE Application SOLNI herbicidal damage (five point scale) (Solanum nigrum (SOLNI) [4]): 3 (3=40-59% damage)
PRE Application ALOMY herbicidal damage (five point scale) [5]: 1 (1=0-19% damage)
POST Application IPOHE herbicidal damage (five point scale) [6]: 5 (5=80-100% damage)
POST Application AMARE herbicidal damage (five point scale) [7]: 5 (5=80-100% damage)
PRE Application SETFA herbicidal damage (five point scale) (Setaria faberi (SETFA) [8]): 1 (1=0-19% damage)
POST Application SETFA herbicidal damage (five point scale) (Setaria faberi (SETFA) [9]): 5 (5=80-100% damage)
PRE Application IPOHE herbicidal damage (five point scale) [10]: 1 (1=0-19% damage)
PRE Application ECHCG herbicidal damage (five point scale) [11]: 1 (1=0-19% damage)
PRE Application AMARE herbicidal damage (five point scale) [12]: 2 (2=20-39% damage)

Cn1ncc(-c2cccn(-c3cccc(C#N)c3)c2=O)c(O)c1=O [Compound 1.138]
POST Application ECHCG herbicidal damage (five point scale) [1]: 4 (4=60-79% damage)
POST Application ALOMY herbicidal damage (five point scale) [2]: 1 (1=0-19% damage)
POST Application SOLNI herbicidal damage (five point scale) (Solanum nigrum (SOLNI) [3]): 5 (5=80-100% damage)
PRE Application SOLNI herbicidal damage (five point scale) (Solanum nigrum (SOLNI) [4]): 1 (1=0-19% damage)
PRE Application ALOMY herbicidal damage (five point scale) [5]: 1 (1=0-19% damage)
POST Application IPOHE herbicidal damage (five point scale) [6]: 1 (1=0-19% damage)
POST Application AMARE herbicidal damage (five point scale) [7]: 5 (5=80-100% damage)
PRE Application SETFA herbicidal damage (five point scale) (Setaria faberi (SETFA) [8]): 1 (1=0-19% damage)
POST Application SETFA herbicidal damage (five point scale) (Setaria faberi (SETFA) [9]): 5 (5=80-100% damage)
PRE Application IPOHE herbicidal damage (five point scale) [10]: 1 (1=0-19% damage)
PRE Application ECHCG herbicidal damage (five point scale) [11]: 1 (1=0-19% damage)
PRE Application AMARE herbicidal damage (five point scale) [12]: 1 (1=0-19% damage)

C=C(C)c1ccc(-c2cnn(C)c(=O)c2O)c(S(C)(=O)=O)c1 [Compound 1.140]
POST Application ECHCG herbicidal damage (five point scale) [1]: 5 (5=80-100% damage)
POST Application ALOMY herbicidal damage (five point scale) [2]: 5 (5=80-100% damage)
POST Application SOLNI herbicidal damage (five point scale) (Solanum nigrum (SOLNI) [3]): 5 (5=80-100% damage)
PRE Application SOLNI herbicidal damage (five point scale) (Solanum nigrum (SOLNI) [4]): 5 (5=80-100% damage)
PRE Application ALOMY herbicidal damage (five point scale) [5]: 5 (5=80-100% damage)
POST Application IPOHE herbicidal damage (five point scale) [6]: 5 (5=80-100% damage)
POST Application AMARE herbicidal damage (five point scale) [7]: 5 (5=80-100% damage)
PRE Application SETFA herbicidal damage (five point scale) (Setaria faberi (SETFA) [8]): 1 (1=0-19% damage)
POST Application SETFA herbicidal damage (five point scale) (Setaria faberi (SETFA) [9]): 3 (3=40-59% damage)
PRE Application IPOHE herbicidal damage (five point scale) [10]: 2 (2=20-39% damage)
PRE Application ECHCG herbicidal damage (five point scale) [11]: 5 (5=80-100% damage)
PRE Application AMARE herbicidal damage (five point scale) [12]: 5 (5=80-100% damage)

Cn1ncc(-c2ccc(C#N)cc2S(C)(=O)=O)c(O)c1=O [Compound 1.141]
POST Application ECHCG herbicidal damage (five point scale) [1]: 5 (5=80-100% damage)
POST Application ALOMY herbicidal damage (five point scale) [2]: 5 (5=80-100% damage)
POST Application SOLNI herbicidal damage (five point scale) (Solanum nigrum (SOLNI) [3]): 5 (5=80-100% damage)
PRE Application SOLNI herbicidal damage (five point scale) (Solanum nigrum (SOLNI) [4]): 5 (5=80-100% damage)
PRE Application ALOMY herbicidal damage (five point scale) [5]: 5 (5=80-100% damage)
POST Application IPOHE herbicidal damage (five point scale) [6]: 5 (5=80-100% damage)
POST Application AMARE herbicidal damage (five point scale) [7]: 5 (5=80-100% damage)
PRE Application SETFA herbicidal damage (five point scale) (Setaria faberi (SETFA) [8]): 5 (5=80-100% damage)
POST Application SETFA herbicidal damage (five point scale) (Setaria faberi (SETFA) [9]): 5 (5=80-100% damage)
PRE Application IPOHE herbicidal damage (five point scale) [10]: 5 (5=80-100% damage)
PRE Application ECHCG herbicidal damage (five point scale) [11]: 5 (5=80-100% damage)
PRE Application AMARE herbicidal damage (five point scale) [12]: 5 (5=80-100% damage)

Cn1ncc(-c2cccn(-c3cccc(Cl)c3)c2=O)c(O)c1=O [Compound 1.143]
POST Application ECHCG herbicidal damage (five point scale) [1]: 2 (2=20-39% damage)
POST Application ALOMY herbicidal damage (five point scale) [2]: 2 (2=20-39% damage)
POST Application SOLNI herbicidal damage (five point scale) (Solanum nigrum (SOLNI) [3]): 4 (4=60-79% damage)
PRE Application SOLNI herbicidal damage (five point scale) (Solanum nigrum (SOLNI) [4]): 1 (1=0-19% damage)
PRE Application ALOMY herbicidal damage (five point scale) [5]: 2 (2=20-39% damage)
POST Application IPOHE herbicidal damage (five point scale) [6]: 1 (1=0-19% damage)
POST Application AMARE herbicidal damage (five point scale) [7]: 1 (1=0-19% damage)
PRE Application SETFA herbicidal damage (five point scale) (Setaria faberi (SETFA) [8]): 1 (1=0-19% damage)
POST Application SETFA herbicidal damage (five point scale) (Setaria faberi (SETFA) [9]): 1 (1=0-19% damage)
PRE Application IPOHE herbicidal damage (five point scale) [10]: 1 (1=0-19% damage)
PRE Application ECHCG herbicidal damage (five point scale) [11]: 1 (1=0-19% damage)
PRE Application AMARE herbicidal damage (five point scale) [12]: 3 (3=40-59% damage)
